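How tested: cells in 96-well plates exposed to compound for 48 hours at five concentrations. Abbreviation: GI50, concentration required for 50% inhibition of growth.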 Calls of active or inactive are those of the source. No stated cut-off is given here; in the data, active = GI50 up to about 1.1 µM and inactive = higher.
What was measured:
Experiment in all cases: NCI anticancer screen, dose series, 48 h
[1] = test system: NCI-H226
[2] = test system: HOP-62
[3] = test system: NCI-H460
[4] = test system: RPMI-8226
[5] = test system: MCF7
[6] = test system: UACC-257
[7] = test system: BT-549
[8] = test system: SK-OV-3
[9] = test system: MDA-MB-435
[10] = test system: KM12
[11] = test system: Hs-578T
[12] = test system: NCI-H522
[13] = test system: 786-0
[14] = test system: OVCAR-3
[15] = test system: T47D
[16] = test system: ACHN
[17] = test system: NCI-H23
[18] = test system: OVCAR-5
[19] = test system: SNB-19
[20] = test system: HL-60
[21] = test system: SF-268
[22] = test system: EKVX
[23] = test system: HCT-15
[24] = test system: SF-295
[25] = test system: A549
[26] = test system: SR
[27] = test system: SK-MEL-2
[28] = test system: HCT-116
[29] = test system: A498
[30] = test system: CCRF-CEM
[31] = test system: U-251
[32] = test system: M14
[33] = test system: UACC-62
[34] = test system: HCC 2998
[35] = test system: DU-145
[36] = test system: MDA-N
[37] = test system: IGROV-1
[38] = test system: SF-539
[39] = test system: HT-29
[40] = test system: RXF 393
[41] = test system: SK-MEL-5
[42] = test system: COLO 205
[43] = test system: SNB-75
[44] = test system: PC-3
[45] = test system: HOP-92
[46] = test system: MOLT-4
[47] = test system: SN12C
[48] = test system: OVCAR-8
[49] = test system: CAKI-1
[50] = test system: TK-10
[51] = test system: OVCAR-4
[52] = test system: NCI/ADR-RES
[53] = test system: SK-MEL-28
[54] = test system: Malme-3M
[55] = test system: MDA-MB-231
[56] = test system: UO-31
[57] = test system: K562
[58] = test system: SW-620
[59] = test system: LOX IMVI

COC(=O)c1c(OC(C)=O)ccc2c1c1c(n2Cc2ccccc2)C(=O)c2ccccc2C1=O
GI50 [1]: 23 µM (inactive)
GI50 [2]: 24.1 µM (inactive)
GI50 [3]: 30.1 µM (inactive)
GI50 [4]: 15.7 µM (inactive)
GI50 [5]: 33.9 µM (inactive)
GI50 [6]: 10.7 µM (inactive)
GI50 [7]: 23.2 µM (inactive)
GI50 [8]: 23.6 µM (inactive)
GI50 [9]: 18.7 µM (inactive)
GI50 [10]: 20.5 µM (inactive)
GI50 [11]: 19.9 µM (inactive)
GI50 [12]: 19.5 µM (inactive)
GI50 [13]: 25.6 µM (inactive)
GI50 [14]: 17.6 µM (inactive)
GI50 [15]: 20 µM (inactive)
GI50 [16]: 30.1 µM (inactive)
GI50 [17]: 19.5 µM (inactive)
GI50 [18]: 20.1 µM (inactive)
GI50 [19]: 35.3 µM (inactive)
GI50 [20]: 25.8 µM (inactive)
GI50 [21]: 26.5 µM (inactive)
GI50 [22]: 19.6 µM (inactive)
GI50 [23]: 19.7 µM
GI50 [24]: 17.5 µM (inactive)
GI50 [25]: 26.4 µM (inactive)
GI50 [26]: 24.9 µM (inactive)
GI50 [27]: 18.7 µM (inactive)
GI50 [28]: 15.7 µM (inactive)
GI50 [29]: 19.4 µM (inactive)
GI50 [30]: 36.3 µM (inactive)
GI50 [31]: 19.4 µM (inactive)
GI50 [32]: 22 µM (inactive)
GI50 [33]: 22.5 µM (inactive)
GI50 [34]: 16.2 µM (inactive)
GI50 [35]: 17 µM (inactive)
GI50 [36]: 18.7 µM (inactive)
GI50 [37]: 20.1 µM (inactive)
GI50 [38]: 17.9 µM (inactive)
GI50 [39]: 16.9 µM (inactive)
GI50 [40]: 18.8 µM (inactive)
GI50 [41]: 14.2 µM (inactive)
GI50 [42]: 16.9 µM (inactive)
GI50 [43]: 22.2 µM (inactive)
GI50 [44]: 22.4 µM (inactive)
GI50 [45]: 21.4 µM (inactive)
GI50 [46]: 16.8 µM (inactive)
GI50 [47]: 19.1 µM (inactive)
GI50 [48]: 27.7 µM (inactive)
GI50 [49]: 22 µM (inactive)
GI50 [50]: 33.7 µM (inactive)
GI50 [51]: 21.8 µM (inactive)
GI50 [52]: 24 µM (inactive)
GI50 [53]: 21.4 µM (inactive)
GI50 [54]: 30 µM (inactive)
GI50 [55]: 17.1 µM (inactive)
GI50 [56]: 37.2 µM (inactive)
GI50 [57]: 25.7 µM (inactive)

CCC(=O)NCCc1c[nH]c2ccc(OC)cc12
GI50 [1]: > 100 µM (inactive)
GI50 [58]: > 100 µM (inactive)
GI50 [2]: > 100 µM (inactive)
GI50 [3]: > 100 µM (inactive)
GI50 [4]: > 100 µM (inactive)
GI50 [5]: > 100 µM (inactive)
GI50 [6]: > 100 µM (inactive)
GI50 [7]: > 100 µM (inactive)
GI50 [8]: > 100 µM (inactive)
GI50 [9]: > 100 µM (inactive)
GI50 [10]: > 100 µM (inactive)
GI50 [11]: > 100 µM (inactive)
GI50 [12]: > 100 µM (inactive)
GI50 [13]: > 100 µM (inactive)
GI50 [14]: > 100 µM (inactive)
GI50 [15]: > 100 µM (inactive)
GI50 [16]: > 100 µM (inactive)
GI50 [17]: > 100 µM (inactive)
GI50 [18]: > 100 µM (inactive)
GI50 [19]: > 100 µM (inactive)
GI50 [21]: > 100 µM (inactive)
GI50 [22]: > 100 µM (inactive)
GI50 [23]: > 100 µM
GI50 [24]: > 100 µM (inactive)
GI50 [25]: > 100 µM (inactive)
GI50 [26]: > 100 µM (inactive)
GI50 [27]: > 100 µM (inactive)
GI50 [28]: > 100 µM (inactive)
GI50 [29]: > 100 µM (inactive)
GI50 [30]: > 100 µM (inactive)
GI50 [31]: > 100 µM (inactive)
GI50 [32]: > 100 µM (inactive)
GI50 [33]: > 100 µM (inactive)
GI50 [34]: > 100 µM (inactive)
GI50 [35]: > 100 µM (inactive)
GI50 [36]: > 100 µM (inactive)
GI50 [37]: > 100 µM (inactive)
GI50 [38]: > 100 µM (inactive)
GI50 [39]: > 100 µM (inactive)
GI50 [40]: > 100 µM (inactive)
GI50 [41]: > 100 µM (inactive)
GI50 [42]: > 100 µM (inactive)
GI50 [43]: > 100 µM (inactive)
GI50 [44]: > 100 µM (inactive)
GI50 [45]: > 100 µM (inactive)
GI50 [46]: > 100 µM (inactive)
GI50 [47]: > 100 µM (inactive)
GI50 [48]: > 100 µM (inactive)
GI50 [49]: > 100 µM (inactive)
GI50 [50]: > 100 µM (inactive)
GI50 [51]: > 100 µM (inactive)
GI50 [52]: > 100 µM (inactive)
GI50 [53]: > 100 µM (inactive)
GI50 [59]: > 100 µM (inactive)
GI50 [54]: > 100 µM (inactive)
GI50 [55]: > 100 µM (inactive)
GI50 [56]: > 100 µM (inactive)
GI50 [57]: > 100 µM (inactive)

— ChEMBL document CHEMBL1201862, “PubChem BioAssay data set” (2004)
